The conditions of series [1]: cited from earlier work.
The test system of a further series is S. aureus (ATCC 29213). Nature of the series: Macromolecular synthesis assays. The series is classed as cell-based, Staphylococcus aureus. Conditions: Staphylococcus aureus, ATCC29213; positive control, 16 μg/mL; read-out: Inhibition of cell-wall (peptidoglycan) biosynthesis. The text has this: Mechanism of Action of the Quinazolinones. The mode of action of 2 was investigated by macromolecular synthesis assays in S. aureus in the logarithmic phase, which monitor incorporation of radiolabeled precursors [methyl-^3H]-thymidine, [5-^3H]-uridine, L-[4,5-^3H]-leucine, or D-[2,3-^3H]-alanine into DNA, RNA, protein, or cell wall (peptidoglycan), respectively. Inhibition of radiolabeled precursor incorporation by 2 at a concentration of half the MIC was compared with those of known inhibitors of each pathway (ciprofloxacin, rifampicin, tetracycline, and fosfomycin, respectively).
The mode of action of 2 was investigated by macromolecular synthesis assays in S. aureus in the logarithmic phase (Miller, A A et al. Antimicrob. Agents Chemother. 52, 2806-12 (2008)), which monitor incorporation of radiolabeled precursors [methyl-^3H]-thymidine, [5-^3H]-uridine, L-[4,5-^3H]-leucine, or D-[2,3-^3H]-alanine into DNA, RNA, protein, or cell wall (peptidoglycan), respectively.
The incorporation of radiolabeled precursors—[methyl-^3H]-thymidine, [5-^3H]-uridine, L-[4,5-^3H]-leucine, or D-[2,3-^3H]-alanine—into DNA, RNA, protein, or peptidoglycan, respectively, in logarithmically growing S. aureus (ATCC 29213) was measured using a previously published method, with aliquots taken every 20 min over a 120-min incubation period (Wilson et al., Antimicrob. Agents Chemother. 39, 1925-33 (1995)).

Each structure is given as a SMILES string.

`CCCCCCCCCC(=O)N[C@@H](Cc1c[nH]c2ccccc12)C(=O)N[C@H](CC(N)=O)C(=O)N[C@@H](CC(=O)O)C(=O)N[C@@H]1C(=O)NCC(=O)N[C@@H](CCCN)C(=O)N[C@@H](CC(=O)O)C(=O)N[C@H](C)C(=O)N[C@@H](CC(=O)O)C(=O)NCC(=O)N[C@H](CO)C(=O)N[C@@H]([C@H](C)CC(=O)O)C(=O)N[C@@H](CC(=O)c2ccccc2N)C(=O)O[C@@H]1C` [daptomycin]: the Plasma protein binding in series [1] is greater than 91%.
Regarding `C[C@@H]1O[C@@H]1P(=O)(O)O` [fosfomycin, reference compound], the inhibition at 16 µg/mL in the series on S. aureus (ATCC 29213) is 64 ± 8%.

These data come from patent US10329262B2, “Quinazolinone antibiotics” (priority 2013, dated 2019).
